Literature values in patent EP4062897A1, “HAIR CARE COMPOSITION AND PREPARATION METHOD THEREFOR” (BioRight Worldwide Company Limited, priority 2019, dated 2021).

Conditions: in aqueous solution, typical value

half-life: 14 days
Compound: NC(=O)c1ccc[n+]([C@@H]2O[C@H](COP(=O)([O-])O)[C@@H](O)[C@H]2O)c1 [nicotinamide mononucleotide, Nicotinamide mononucleotide]
